The source of these data is ChEMBL document CHEMBL1914338, “Tricyclic series of heat shock protein 90 (Hsp90) inhibitors part I: discovery of tricyclic imidazo[4,5-c]pyridines as potent inhibitors of the Hsp90 molecular chaperone” (J Med Chem, 2011).

By IC50 is commonly meant the concentration that gives 50% inhibition.

The target in experiment [1] is T1, Heat shock protein HSP 90-beta (Homo sapiens, UniProt P08238).
Description: Inhibition of human Hsp90beta after overnight incubation by fluorescence polarization assay
Experiment [2] concerns the target T1, Heat shock protein HSP 90-beta. The source holds these as a separate data set.
Description: Inhibition of HSP90beta in human SKBR3 cells assessed as down regulation of HER2 expression levels after 24 hrs by FACS analysis
Experiment [3] has the same target. The source holds these as a separate data set.
Description: Binding affinity to human Hsp90beta assessed as association constant after overnight incubation by fluorescence polarization assay
Experiment [4] relates to P388. In words: Antitumor activity in mouse P388 cells xenografted in B6D2F1 mouse assessed as median day of death at 80 mg/kg/day, ip for 4 days (reference value: 10 days). It counts as functional. Conditions: route intraperitoneal.
Experiment [5] has as its system P388. Kind of experiment: Antitumor activity in mouse P388 cells xenografted in B6D2F1 mouse assessed as increase in mouse life span at 80 mg/kg/day, ip for 4 days relative to control. The class given is functional. Conditions: route intraperitoneal.

T1 sequence (P08238 whole entry): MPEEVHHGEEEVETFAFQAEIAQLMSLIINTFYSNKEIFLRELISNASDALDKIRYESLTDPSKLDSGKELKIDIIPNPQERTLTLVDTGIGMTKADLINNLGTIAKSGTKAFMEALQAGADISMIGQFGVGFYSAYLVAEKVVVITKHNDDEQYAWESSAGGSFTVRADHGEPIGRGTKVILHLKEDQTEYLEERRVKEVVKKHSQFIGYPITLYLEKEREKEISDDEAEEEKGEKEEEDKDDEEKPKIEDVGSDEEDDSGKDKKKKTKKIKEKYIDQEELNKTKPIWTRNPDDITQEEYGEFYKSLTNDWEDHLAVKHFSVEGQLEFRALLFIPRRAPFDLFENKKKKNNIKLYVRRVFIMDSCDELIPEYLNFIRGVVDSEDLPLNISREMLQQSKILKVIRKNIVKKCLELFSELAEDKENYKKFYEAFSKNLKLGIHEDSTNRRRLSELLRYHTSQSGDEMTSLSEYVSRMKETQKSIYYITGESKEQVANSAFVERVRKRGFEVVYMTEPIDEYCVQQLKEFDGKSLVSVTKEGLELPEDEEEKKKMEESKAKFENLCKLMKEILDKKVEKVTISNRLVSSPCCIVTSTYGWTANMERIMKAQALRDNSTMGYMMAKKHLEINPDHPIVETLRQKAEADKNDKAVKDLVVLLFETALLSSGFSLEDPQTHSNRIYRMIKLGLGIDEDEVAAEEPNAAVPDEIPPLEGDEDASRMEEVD

`Cc1onc(-c2ccc(O)cc2O)c1-c1ccccc1` registered an IC50 in experiment [1] of 7.6 µM. In the case of `O=C1c2ccccc2C2=C(c3nc4ccncc4[nH]3)CCCN12`, in experiment [2], the concentration for half-maximal inhibition (IC50) was more than 50 µM.

In experiment [2], `O=C1c2ccccc2-c2c1cccc2-c1nc2cnccc2[nH]1` yielded an IC50 of more than 50 µM. Compound `NC(=O)CCC(=O)NC1c2ccccc2-c2c(-c3nc4cnccc4[nH]3)cccc21` (racemic) showed a 50% inhibitory concentration (IC50) in experiment [2] of 50 µM. On the same count and under the same terms, the same measure for `O=C(NC1c2ccccc2-c2c(-c3nc4ccncc4[nH]3)cccc21)c1ccncc1` (racemic): 1.3 µM; for `O=C(NC1c2ccccc2-c2c(-c3nc4ccccc4[nH]3)cccc21)c1cccc2ncccc12` (racemic): 1.3 µM; for `Nc1cc(C(=O)NC2c3ccccc3-c3c(-c4nc5ccncc5[nH]4)cccc32)ccn1` (racemic): 0.9 µM.

For the compound `C=CCNC1=C2C[C@@H](C)C[C@H](OC)[C@H](O)[C@@H](C)/C=C(\C)[C@H](OC(N)=O)[C@@H](OC)/C=C\C=C(/C)C(=O)NC(=CC1=O)C2=O` [TANESPIMYCIN], the Ka in experiment [3] worked out at 1.2 ×10⁴ /M/s. Besides, the Time with P388 [4] was found to be 13 days. Moreover, in the experiment with P388 [5], the Activity came out at 30%.
